Laboratory results taken from patent publication US9115126B2, “1H-[1,2,3]triazolo[4,5-c]pyridine-4-carbonitrile derivatives” (Merck Sharp & Dohme B.V., priority 2010, dated 2015).
Where a name gives a salt, the structure may show the parent alone. Read-outs that look alike come from different tables or passages of the source.

Experiments:
Rat oral bioavailability = conditions: Sprague-Dawley, in vivo, SD rat, read-out: Bioavailability F
[1] = target: recombinant human Cathepsin S (Homo sapiens (Human), UniProt P25774); experiment: Cathepsin S assay procedure (fluorogenic substrate Z-Val-Val-Arg-AMC); assay type: biochemical
Experimental: 25 μl of a 2 mg/l solution of activated recombinant human cathepsin S, in assay buffer, is then added to the well, yielding a final inhibitor concentration of 10 μM.
Enzyme activity is determined by measuring the fluorescence of the liberated aminomethylcoumarin at […] using 390 nm excitation, at 20 minutes. Percentage enzyme activity is calculated by comparison of this activity to that of a solution containing no inhibitor.

[2] = tested on: Human B lymphoblastoid cells (Jiyoye); experiment: Cell based Lip10 assay (lip10 accumulation, anti-CD74 ELISA); conditions: 24 hours, relative to E64d/LHVS-treated cells, read-out: pEC50 (negative logarithm of the EC50 concentration), lip10 assay (converted)
Experimental: Human B lymphoblastoid cells (Jiyoye) were cultured in RPMI 1640 medium at a density of 500 000 cells/ml in 24-well plates. Cells were treated with a concentration range of compounds (0.001-10 μM) and vehicle alone (DMSO, 0.1% v/v). In order to generate positive control treatments separate wells were treated with 10 μM E64d & 0.1 μM LHVS. The cells were incubated at 37° C. in a humidified incubator containing 5% CO2. After 24 hours the plates were centrifuged at 150×g for five minutes and the media removed. Cells were lysed by adding 65 ul of ice-cold phosphate buffered saline (PBS) containing 1% (v/v) Triton X-100 and protease inhibitors and incubated on ice for 20 minutes. The samples were centrifuged at 18 000×g for 15 minutes at 4° C. and the resulting supernatants collected and stored at −80° C. until required. After measurement of protein concentration using a micro-BCA protein assay all samples were diluted to […] and 50 l of each sample were coated overnight at 4° C. onto wells of high protein-binding 96-well plates. The wells were washed once with PBS (200 l/well) and then incubated at room temperature for 2 hours with 10 μg/ml mouse anti-CD74 Pin.1 monoclonal antibody (50 l/well) in PBS containing 0.05% (v/v) Tween-20 (PBS-T) and 2% (w/v) BSA (PBS-T/BSA). Unbound antibody was then removed by washing three times with PBS-T and followed by the addition of rabbit anti-mouse IgG antibody conjugated to horseradish peroxidase. After washing five times with PBS-T 100 μl of tetramethylbenzidine substrate was added to each well and incubated for 10 minutes on a plate shaker. The reaction was stopped by the addition of 100 μl of 1M hydrochloric acid. Antibody binding was quantified by measuring the optical density (OD, 450 nm) using a Molecular Devices Spectramax Plus. The OD of vehicle-only treated cells was removed from all values and the data was expressed as a percentage of the OD generated from the mean E64d/LHVS-treated cells. The potency of compounds (EC50) was measured by calculating the concentration of inhibitor required to generate 50% inhibition relative to E64d/LHVS-treated cells.

[3] = pH5.5, fluorescence at 20 minutes, read-out: Cat S activity IC50
[4] = read-out: pIC50 (negative logarithm of the IC50 concentration) for inhibition of human cathepsin S (converted)

Sequence of recombinant human Cathepsin S (P25774 115-331): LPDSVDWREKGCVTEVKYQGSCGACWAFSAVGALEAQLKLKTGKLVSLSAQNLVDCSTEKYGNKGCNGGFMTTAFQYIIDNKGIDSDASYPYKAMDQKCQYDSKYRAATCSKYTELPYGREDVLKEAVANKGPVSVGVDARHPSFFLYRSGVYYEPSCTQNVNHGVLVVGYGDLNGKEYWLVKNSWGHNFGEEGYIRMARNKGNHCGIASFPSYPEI

| IC50 [1, 4] [nM] | SMILES | IC50 [1, 3] [nM] | further results |
| --- | --- | --- | --- |
| – | CN(C)C(=O)CN1CCC(CCOc2ccc(-c3cc4c(ncn4C)c(C#N)n3)cc2C(F)(F)F)CC1.Cl [EP 09150709.5 - Example 14d, reference compound] | 8.3 | bioavailability (Rat oral bioavailability): 9% |
| < 10 | CN(C)C(=O)CN1CCC(CCOc2ccc(-c3cc4c(nnn4C)c(C#N)n3)cc2C(F)(F)F)CC1.Cl [Example 2a, 6-(4-(2-(1-(2-dimethylamino-2-oxoethyl)piperidin-4-yl)ethoxy)-3-(trifluoromethyl)-phenyl)-1-methyl-1H-[1,2,3]triazolo[4,5-c]pyridine-4-carbonitrile hydrochloride] | 1.5 | EC50 [2]: < 100 nM; bioavailability (Rat oral bioavailability): 42% |
| < 10 | Cn1nnc2c(C#N)nc(-c3ccc(OCCC4CCN(CC(C)(C)O)CC4)c(C(F)(F)F)c3)cc21 [Example 2d, 6-(4-(2-(1-(2-hydroxy-2-methylpropyl)piperidin-4-yl)ethoxy)-3-(trifluoromethyl)phenyl)-1-methyl-1H-[1,2,3]triazolo-[4,5-c]pyridine-4-carbonitrile hydrochloride] | – | EC50 [2]: < 100 nM |
| < 10 | Cn1nnc2c(C#N)nc(-c3ccc(OCCC4CCN(Cc5ncco5)CC4)c(C(F)(F)F)c3)cc21 [Example 3a, 1-methyl-6-(4-(2-(1-(oxazol-2-ylmethyl)piperidin-4-yl)ethoxy)-3-(trifluoromethyl)phenyl)-1H-[1,2,3]triazolo[4,5-c]pyridine-4-carbonitrile] | – | EC50 [2]: < 100 nM |
| < 10 | Cn1nnc2c(C#N)nc(-c3ccc(OCCCN4CCN(c5ccccn5)CC4)c(C(F)(F)F)c3)cc21 [Example 36w, 1-methyl-6-(4-(3-(4-(pyridin-2-yl)piperazin-1-yl)propoxy)-3-(trifluoromethyl)phenyl)-1H-[1,2,3]triazolo[4,5-c]pyridine-4-carbonitrile hydrochloride] | – | – |
| < 10 | CN(CCCOc1ccc(-c2cc3c(nnn3C)c(C#N)n2)cc1C(F)(F)F)CC(=O)N(C)C [Example 36x, 2-((3-(4-(4-cyano-1-methyl-1H-[1,2,3]triazolo[4,5-c]pyridin-6-yl)-2-(trifluoro-methyl)phenoxy)propyl)(methyl)amino)-N,N-dimethylacetamide hydrochloride] | – | – |
| < 10 | Cn1nnc2c(C#N)nc(-c3ccc(OCCN4CCN(CCO)CC4)c(C(F)(F)F)c3)cc21 [Example 37e, 6-(4-(2-(4-(2-hydroxyethyl)piperazin-1-yl)ethoxy)-3-(trifluoromethyl)phenyl)-1-methyl-1H-[1,2,3]triazolo[4,5-c]pyridine-4-carbonitrile] | – | – |
| – | CN(C)C(=O)CN1CCN(CCOc2ccc(-c3cc4c(nnn4C)c(C#N)n3)cc2C(F)(F)F)CC1 [Example 37g, 2-(4-(2-(4-(4-cyano-1-methyl-1H-[1,2,3]triazolo[4,5-c]pyridin-6-yl)-2-(trifluoromethyl)phenoxy)ethyl)piperazin-1-yl)-N,N-dimethylacetamide dihydrochloride] | – | EC50 [2]: < 100 nM |
| < 10 | CN(CCOc1ccc(-c2cc3c(nnn3C)c(C#N)n2)cc1C(F)(F)F)CC(=O)N(C)C [Example 37m, 2-((2-(4-(4-cyano-1-methyl-1H-[1,2,3]triazolo[4,5-c]pyridin-6-yl)-2-(trifluoromethyl)phenoxy)ethyl)(methyl)amino)-N,N-dimethylacetamide] | – | – |
| < 10 | Cn1nnc2c(C#N)nc(-c3ccc(OCCN4CCS(=O)(=O)CC4)c(C(F)(F)F)c3)cc21 [Example 37p, 1-methyl-6-(4-(2-(4-S,S-dioxothiomorpholin-1-yl)ethoxy)-3-(trifluoromethyl)phenyl)-1H-[1,2,3]triazolo[4,5-c]pyridine-4-carbonitrile] | – | – |
| < 10 | Cn1nnc2c(C#N)nc(-c3ccc(OCCN4CCNC(C(F)(F)F)C4)c(C(F)(F)F)c3)cc21 (stereo not drawn) [Example 37q, 1-methyl-6-(3-(trifluoromethyl)-4-(2-(3-(trifluoromethyl)piperazin-1-yl)ethoxy)phenyl)-1H-[1,2,3]triazolo[4,5-c]pyridine-4-carbonitrile] | – | – |
| < 10 | Cn1nnc2c(C#N)nc(-c3ccc(OCCN4CCNC(=O)C4)c(C(F)(F)F)c3)cc21 [Example 37r, 1-methyl-6-(4-(2-(3-oxopiperazin-1-yl)ethoxy)-3-(trifluoromethyl)phenyl)-1H-[1,2,3]triazolo[4,5-c]pyridine-4-carbonitrile] | – | – |
| < 10 | COC(=O)[C@@H](O)CN1CCC(CCOc2ccc(-c3cc4c(nnn4C)c(C#N)n3)cc2C(F)(F)F)CC1 [Example 39, (S)-methyl 3-(4-(2-(4-(4-cyano-1-methyl-1H-[1,2,3]triazolo[4,5-c]pyridin-6-yl)-2-(trifluoromethyl)phenoxy)ethyl)piperidin-1-yl)-2-hydroxypropanoate] | – | – |
| < 10 | CC(C)c1noc(COc2ccc(-c3cc4c(nnn4C)c(C#N)n3)cc2C(F)(F)F)n1 [Example 43, 6-(4-((3-isopropyl-1,2,4-oxadiazol-5-yl)methoxy)-3-(trifluoromethyl)phenyl)-1-methyl-1H-[1,2,3]triazolo[4,5-c]pyridine-4-carbonitrile] | – | – |
| – | Cn1nnc2c(C#N)nc(-c3ccc(CCCO)c(C(F)(F)F)c3)cc21 [Example 44, 6-(4-(3-hydroxypropyl)-3-(trifluoromethyl)phenyl)-1-methyl-1H-[1,2,3]triazolo[4,5-c]pyridine-4-carbonitrile] | 13 | – |
| – | CN(C)CCCOc1ccc(-c2cc3c(ncn3C)c(C#N)n2)cc1C(F)(F)F [WO 2009/010491 - Example 2a, reference compound] | 32 | – |
| – | Cn1cnc2c(C#N)nc(-c3ccc(OCCC4CCNCC4)c(C(F)(F)F)c3)cc21 [WO 2009/010491, Example 14a, reference compound] | 8 | – |
| – | Cn1cnc2c(C#N)nc(-c3ccc(CCCO)c(C(F)(F)F)c3)cc21 [WO 2009/010491, Example 15, reference compound] | 234 | – |
